Converted amounts (≈) assume the structure as drawn. Where a SMILES comes first, the peptide text is derived from it. [ ]: non-standard residue; d: D form.
Columns and labels:
[1] = test system: K. pneumoniae clinical isolates
Procedure: (§1) Subcultures, prepared by inoculating 25 mL of fresh tryptic soy broth (TSB) with 200 μL of an overnight culture, were grown to log phase (OD600 = 0.3–0.6), after which cell counts were determined by measuring the OD600 (1.0 = 5 × 10^8 CFU/mL for E. coli, 4 × 10^8 CFU/mL for K. pneumoniae, 4 × 10^8 CFU/mL for P. aeruginosa, 1.5 × 10^8 CFU/mL for S. aureus). Bacterial cells were diluted to appropriate concentrations in TSB. We used the following clinical bacterial isolates of Klebsiella pneumoniae in this study: Strains KP6, KP46, NDM-1, KP396, and KP398 have been previously described.[43] ST58 strains C2, C3, and I2 are also described.[41] […] MRSA, […] S. aureus strain, is SAP400, a USA400 strain of community-acquired MRSA. […] The second independent set of K. pneumoniae isolates are previously described.[20],[21]
(§2) The antibiotics were serially diluted by a factor of 2:3 horizontally across 96-well plates from Corning, 25 μL per well. One column was reserved for controls. For the assays performed in the presence of RBC, type O+ human RBCs at 0 or 2.5 × 10^9 cells/mL were added in 50 μL aliquots to all wells. Following a 30-min incubation, 50 μL of TSB, inoculated with 5 × 10^5 CFU/mL, was added to all wells, and plates were incubated overnight at 37 °C. Following overnight incubation at 37 °C, the OD600 was measured (values of less than 0.1 were considered sterilized). To assess bacterial growth in the assays with RBC, the OD600 was measured after a second-day inoculation with 10 μL of solution from the original plate added to 100 μL of sterile TSB followed by overnight incubation.
(§3) Experiments were repeated four to eight times independently, with pairs of replicate measurements on each 96-well plate. After overnight growth, optical densities were measured at 660 nm and the sterilized wells were identified by having O.D. < 0.08. Nonsterilized wells were nearly opaque with OD > 0.6. For each measurement, we recorded the largest dilution that sterilized the bacteria. Statistics are done on dilution numbers, rather than calculated concentrations, because only the former have normal distributions.

[2] = test system: 14 clinical isolates of resistant bacterial strains; assay: Broth dilution, summary over the 14 clinical isolates of the first set; type: cell-based; settings: 14 clinical isolates of the first set
Procedure: In Figure 4B, we plot the fraction of isolates sterilized as functions of antibiotic concentration.
as §1, §2

[3] = test system: Pseudomonas aeruginosa clinical isolates; assay: microbe, parasite or virus in culture; settings: clinical isolates
Procedure: as §1, §2, §3

[4] = test system: MRSA SAP400, a USA400 strain; assay: microbe, parasite or virus in culture; settings: USA400
Procedure: as §1, §2, §3

wound infections = assay: Murine wound model, once or twice per day dosing and viscous polymer formulations; type: in vivo, mice; settings: 75 μg of peptide in 20 μL of buffer (PBS)
Excerpt: Preliminary data had shown that once per day treatments in a simple aqueous vehicle were ineffective against wound infections in this model, see Figure S2. Three times per day is required for efficacy in simple media, Figure 8. Therefore, we also tested the effectiveness of D-CONGA-Q7 formulated in aqueous suspensions of carboxymethyl cellulose and Xanthan gum, which are anionic carbohydrate polymers that create highly viscous solutions at ∼1% w/v concentration. […] Clinically useful formulations of these peptides may be straightforward to develop.
Figure S2. Activity of D-CONGA-Q7 in wound model using 1x and 2x per day administration. Experiments were performed as described in main text, except that treatments with 75 μg of peptide in 20 μL of buffer were administered only once or twice per day. Bacterial […]
in PBS. Also, Tegaderm biofilm formation is not inhibited by peptide under these conditions.
Results for three times per day administration are shown in Figs. 8&9 of the main manuscript.
(1 picture or pasted object on this page, not shown here)
Radial diffusion results Murine wound infection
A C 6 hour incubation E 10 Once per day treatment with:
1.0 Buffer and viscous polymers D-CONGA-Q7 in 0.75% CMC
Peptide concentration (µM)
B D 24 hour incubation Once per day treatment with:
Buffer and viscous polymers 0.75% XG Vehicle only
1.0% XG D-CONGA-Q7 in 0.75% XG […]

Question: For `CC(C)C[C@@H](NC(=O)[C@@H](CCC(N)=O)NC(=O)[C@@H](CCCNC(=N)N)NC(=O)[C@@H](CCCNC(=N)N)NC(=O)[C@@H](C)NC(=O)[C@@H](Cc1c[nH]c2ccccc12)NC(=O)[C@@H](CCCNC(=N)N)NC(=O)[C@H](N)CCCNC(=N)N)C(=O)N[C@H](C)C(=O)N[C@H](Cc1ccccc1)C(=O)N[C@H](C)C(=O)N[C@H](Cc1ccccc1)C(=O)N[C@H](CCCNC(=N)N)C(=O)N[C@H](CCCNC(=N)N)C(N)=O` [D-CONGA-Q7] (H-[dR][dR][dW][dA][dR][dR][dQ][dL][dA][dF][dA][dF][dR][dR]-NH2; N-terminus assumed), which “K. Pneumoniae Isolate MIC, 1000527” value [1] is on record?
Answer: 6.8 µM

Question: What about the “K. Pneumoniae Isolate MIC, 1002565” value [1] of the same compound?
Answer: 5.1 µM

Question: And the “K. Pneumoniae Isolate MIC, 1100770” value [1]?
Answer: 5.1 µM

Question: What about the “K. Pneumoniae Isolate MIC, 1100975” value [1] of the same compound?
Answer: 3.4 µM

Question: And the “K. Pneumoniae Isolate MIC, ATCC 43816” value [1]?
Answer: 6.8 µM

Question: And the “K. Pneumoniae Isolate MIC, ATCC 700721” value [1]?
Answer: 6.8 µM

Question: What about the “K. Pneumoniae Isolate MIC, K6” value [1] of the same compound?
Answer: 3.4 µM

Question: What about the “K. Pneumoniae Isolate MIC, K 6.1” value [1] of the same compound?
Answer: 3.4 µM

Question: What about the “K. Pneumoniae Isolate MIC, K 6.2” value [1] of the same compound?
Answer: 5.1 µM

Question: And the “K. Pneumoniae Isolate MIC, KP 80” value [1]?
Answer: 3.4 µM

Question: What about the “K. Pneumoniae Isolate MIC, KP NIH 1” value [1] of the same compound?
Answer: 6.8 µM

Question: What about the “K. Pneumoniae Isolate MIC, KP NIH 10” value [1] of the same compound?
Answer: > 25 µM

Question: And the “K. Pneumoniae Isolate MIC, KP NIH 24” value [1]?
Answer: 6.8 µM

Question: And the “K. Pneumoniae Isolate MIC, KP NIH 27” value [1]?
Answer: 3.4 µM

Question: And the “K. Pneumoniae Isolate MIC, KP NIH 29” value [1]?
Answer: 2.5 µM

Question: What about the “K. Pneumoniae Isolate MIC, KP NIH 30” value [1] of the same compound?
Answer: 3.4 µM

Question: And the “K. Pneumoniae Isolate MIC, KP NIH 31” value [1]?
Answer: 3.4 µM

Question: What about the “K. Pneumoniae Isolate MIC, KP NIH 32” value [1] of the same compound?
Answer: 6.8 µM

Question: What about the “K. Pneumoniae Isolate MIC, KP NIH 33” value [1] of the same compound?
Answer: 1.3 µM

Question: What about the “Fraction of clinical isolates sterilized at 2 μM” value ([2]; 2 μM) of the same compound?
Answer: half

Question: What about the “Fraction of clinical isolates sterilized at 5 μM” value ([2]; 5 μM) of the same compound?
Answer: 12/14

Question: What about the “MIC, PA(mucoid)” value [3] of the same compound?
Answer: 4.2 µM (≈ 7.93 µg/mL)

Question: What about the “MIC, PA(non-mucoid)” value [3] of the same compound?
Answer: 1.1 µM (≈ 2.08 µg/mL)

Question: What about the “MIC, MRSA USA400” value [4] of the same compound?
Answer: 1.5 µM (≈ 2.83 µg/mL)

Question: And the “Tegaderm biofilm formation, once or twice per day administration” value (wound infections)?
Answer: not inhibited

Question: And the “Wound bacterial burden, once or twice per day administration” value (wound infections)?
Answer: not reduced significantly
